Reference: patent publication US7741294B1, “Non-standard nucleobases implementing the isocytidine and isoguanosine hydrogen bonding patterns” (priority 2005, dated 2010)
Read-outs that look alike come from different tables or passages of the source.

Key:
[1] = pKa by spectrophotometric titration; type: physicochemical; settings: pH 2.8 to 13.7, 240-350 nm
Experimental: The pKa of the nucleoside analog was determined by spectrophotometric titration (pH 2.8 to 13.7) [Kazimierczuk, Z., Shugar, D. (1974) Acta Biochim. Pol., 21, 455-463.1 at 240-350 nm to give values for pK1 and pK2 as 4.3 (±0.1) and 9.9 (±0.2), respectively.

[2] = keto:enol tautomeric equilibrium from UV spectra in dioxane:water mixtures, extrapolated to pure water; type: physicochemical; settings: log fraction of enol vs ET(30), extrapolated to ET(30) of pure water (63.1)
Description: The procedure of Voegel et al. [Voegel, J. J., von Krosigk, U., Benner, S. A. (1993) J. Org. Chem., 58, 7542-7547.] was then used to estimate a value of the keto:enol tautomers in pure water for dC7 isoG. This procedure exploits the fact that in nonpolar solvents, the UV spectra for both disoG and C7 isoG shift from their form in pure water (which resembles the N-methylated derivatives) to a form that resembles the UV spectra of the O-methylated derivatives. This is interpreted as evidence that the tautomeric equilibrium shifts from one favoring the keto tautomer in pure water to one favoring the enol tautomer in pure dioxane.
To obtain quantitative data, the ratio of the extinction coefficients at two wavelengths (λ=296 and 255 nm for disoG and λ=305 and 254 nm for dC7 isoG), chosen to maximize the difference between the keto and enol forms, was chosen as a metric for the tautomeric equilibrium constant in dioxane:water mixtures in varying proportions. This was plotted against the Dimroth ET(30) value, which provides a measure of the local dielectric constant [Kosower, E. M. (1958) J. Am. Chem. Soc., 80, 3253-3260] [Dimroth, v. K., Reichardt, C., Siepmann, T., Bohlmann, F. (1963) Liebigs Ann. Chem., 661, 1-37.] [Reichardt, C., Harbusch-Goernert, E. (1983) Liebigs Ann. Chem., 721-743] [Gordon, A., Katritzky, A. R. (1968) Tetrahedron Lett., 23, 2767-2770.] […]

[3] = comparison value for the natural nucleoside; cited from earlier work

Structure (SMILES) | pK1 [1] | pK2 [1] | KTAUT (=[keto]/[enol]) [2] | KTAUT (=[keto]/[enol]) [3]
Nc1[nH]c(=O)nc2c1ccn2[C@H]1C[C@H](O)[C@@H](CO)O1 [dC7 isoG, 2′-deoxy-7-deaza-isoguanosine] | 4.3 (±0.1) | 9.9 (±0.2) | ≈ 10^3 | –
Nc1nc2c(ncn2[C@@H]2O[C@H](CO)[C@@H](O)[C@H]2O)c(=O)[nH]1 [guanosine] | – | – | – | 10^4-10^5
